In the supplement of paper PMC11208160:

Assay: recombinant barcode read abundance after kanamycin selection (control-corrected) (log10(CPM+1)); higher = more efficient recombination; sequences stand for … in AGTGCAGAGAAAATCGGCCAGTTTTCTCTGCCTGCAGTCCGCATGCCGT…AGATTTATGCAGCGGACTGCCTTTCTCCCAAAGTGATAAACCGGACAGTATCATGGACCGGTTTTCCCGGTAATCCGTATTTGCAAGGTTGGTTTCACT; site = the 11-nt target
In short: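 Pooled oligos, each joining a target to an IS621 bridge RNA target-binding loop, were cloned and co-electroporated with a donor plasmid into E. coli. Selective plates carried chloramphenicol/ampicillin/kanamycin and 0.1 mM IPTG, while chloramphenicol/ampicillin LB agar served as control, with two replicates of each. Recombination efficiency rests on averaged, control-corrected counts per million of barcodes at recombinant junctions, shown as log10(CPM+1).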
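Also: IS621 recombinase and bridge RNA in Escherichia coli cells.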

Sequence | recombinant barcode read abundance (log10)
GAAATGGCTTGGGTTCTAACCTGTTGCCT (site GAAAGGGCTAG) | 0.108
GAAATGGCTTGGGTTCTAACCTGTTGCCT (site GAAATGGCTAG) | 0.309
GAACACACTTGGGTTCTAACCTGTTGCCG (site GAACACACTCG) | 1.56
GAACACACTTGGGTTCTAACCTGTTGCCG (site GCACACACTCA) | 0.794
GAACACTCTTGGGTTCTAACCTGTTGCTG (site GAACACTCTCA) | 2.09
GAACACTCTTGGGTTCTAACCTGTTGCTG (site TAACACTCTAA) | 0.113
GAACCTACTTGGGTTCTAACCTGTTGCCA (site GAACCTACTTG) | 1.16
GAACCTACTTGGGTTCTAACCTGTTGCCA (site GGACCTACTTG) | 0.0691
GAACTGCCTTGGGTTCTAACCTGTTGCTT (site CCTGACTCTGT) | 0.00853
GAACTGCCTTGGGTTCTAACCTGTTGCTT (site GAACTGCCTAA) | 1.35
GAAGAGTCTTGGGTTCTAACCTGTTGCCT (site GAAGAGTCTAG) | 2.11
GAAGAGTCTTGGGTTCTAACCTGTTGCCT (site GCAGAGTCTAG) | 0.0703
GAAGAGTCTTGGGTTCTAACCTGTTGCCT (site GGAGAGTCTAG) | 0.233
GAAGAGTCTTGGGTTCTAACCTGTTGCCT (site GTAGAGTCTAG) | 1.29
GAAGCGCCTTGGGTTCTAACCTGTTGCCT (site GAAGAGCCTAG) | 0.0683
GAAGCGCCTTGGGTTCTAACCTGTTGCCT (site GAAGCGCCTAG) | 1.42
GAAGCGCCTTGGGTTCTAACCTGTTGCCT (site GAAGGGCCTAG) | 0.0832
GAAGCGCCTTGGGTTCTAACCTGTTGCCT (site GAAGTGCCTAG) | 0.397
GAAGCTACTTGGGTTCTAACCTGTTGCGT (site GAAGCTACTAC) | 1.84
GAAGCTACTTGGGTTCTAACCTGTTGCGT (site GATGCTACTCC) | 0.0227
GAATCAACTTGGGTTCTAACCTGTTGCTT (site GAATCAACTAA) | 0.0878
GAATCAACTTGGGTTCTAACCTGTTGCTT (site GACTCGACTAA) | 0.119
GAATGTTCTTGGGTTCTAACCTGTTGCTT (site GAATATTCTAA) | 0.0132
GAATGTTCTTGGGTTCTAACCTGTTGCTT (site GAATGTTCTAA) | 0.402
GAATTAGCTTGGGTTCTAACCTGTTGCGG (site GAATTAGCTCC) | 1.71
GAATTAGCTTGGGTTCTAACCTGTTGCGG (site GTATTAGCTCG) | 0.287

Sequence | recombinant barcode read abundance (log10)
GACAGACCTTGGGTTCTAACCTGTTGCCT (site AACAGACCTAG) | 0.83
GACAGACCTTGGGTTCTAACCTGTTGCCT (site CACAGACCTAG) | 0.193
GACAGACCTTGGGTTCTAACCTGTTGCCT (site GACAGACCTAG) | 1.72
GACAGACCTTGGGTTCTAACCTGTTGCCT (site TACAGACCTAG) | 0.425
GACAGCCCTTGGGTTCTAACCTGTTGCTG (site GACAGCCCTCA) | 0.991
GACAGCCCTTGGGTTCTAACCTGTTGCTG (site GTCAGCCCTCA) | 0.0582
GACAGTACTTGGGTTCTAACCTGTTGCCT (site AACAGTACTAG) | 0.165
GACAGTACTTGGGTTCTAACCTGTTGCCT (site CACAGTACTAG) | 0.306
GACAGTACTTGGGTTCTAACCTGTTGCCT (site GACAGTACTAG) | 0.714
GACAGTACTTGGGTTCTAACCTGTTGCCT (site TACAGTACTAG) | 0.79
GACATATCTTGGGTTCTAACCTGTTGCCA (site GACATATCTCA) | 0.337
GACATATCTTGGGTTCTAACCTGTTGCCA (site GACATATCTTG) | 0.204
GACATATCTTGGGTTCTAACCTGTTGCTT (site ACTGGTCCTCC) | 0.0369
GACATATCTTGGGTTCTAACCTGTTGCTT (site GACATATCTAA) | 0.358
GACATTCCTTGGGTTCTAACCTGTTGCTT (site CTATGAACTTG) | 0.0749
GACATTCCTTGGGTTCTAACCTGTTGCTT (site GACATTCCTAA) | 0.21
GACCTACCTTGGGTTCTAACCTGTTGCCT (site GACATACCTAG) | 0.0646
GACCTACCTTGGGTTCTAACCTGTTGCCT (site GACCTACCTAG) | 1.8
GACCTACCTTGGGTTCTAACCTGTTGCCT (site GACGTACCTAG) | 0.27
GACCTACCTTGGGTTCTAACCTGTTGCCT (site GACTTACCTAG) | 0.359
GACCTGACTTGGGTTCTAACCTGTTGCCA (site GACCTGACTTG) | 0.463
GACCTGACTTGGGTTCTAACCTGTTGCCA (site GACCTGGCTCG) | 0.128
GACGAGTCTTGGGTTCTAACCTGTTGCTA (site GACGAGTCTTA) | 1.01
GACGAGTCTTGGGTTCTAACCTGTTGCTA (site GGCGAGTCTTA) | 0.154
GACGGACCTTGGGTTCTAACCTGTTGCAT (site GACGGACCTAT) | 2.13
GACGGACCTTGGGTTCTAACCTGTTGCAT (site TGAAAGACTCG) | 0.114

Sequence | recombinant barcode read abundance (log10)
GACGGACCTTGGGTTCTAACCTGTTGCTT (site GACGGACCTAA) | 0.832
GACGGACCTTGGGTTCTAACCTGTTGCTT (site GATGGCCCTAA) | 0.191
GACGGAGCTTGGGTTCTAACCTGTTGCTG (site GACGGAGCTCA) | 1.89
GACGGAGCTTGGGTTCTAACCTGTTGCTG (site GACGGGGCTCT) | 0.224
GACGGATCTTGGGTTCTAACCTGTTGCTT (site GACGGATCTAA) | 0.557
GACGGATCTTGGGTTCTAACCTGTTGCTT (site GACGGATCTAC) | 0.162
GACGGATCTTGGGTTCTAACCTGTTGCTT (site GACGGATCTAG) | 0.197
GACGGATCTTGGGTTCTAACCTGTTGCTT (site GACGGATCTAT) | 0.15
GACTCTCCTTGGGTTCTAACCTGTTGCCT (site GACTCTCCTAA) | 0.21
GACTCTCCTTGGGTTCTAACCTGTTGCCT (site GACTCTCCTAC) | 0.0378
GACTCTCCTTGGGTTCTAACCTGTTGCCT (site GACTCTCCTAG) | 0.0776
GACTCTCCTTGGGTTCTAACCTGTTGCCT (site GACTCTCCTAT) | 0.191
GACTGGCCTTGGGTTCTAACCTGTTGCAG (site ATGGACACTAC) | 0.0143
GACTGGCCTTGGGTTCTAACCTGTTGCAG (site GACTGGCCTCT) | 0.862
GACTTAACTTGGGTTCTAACCTGTTGCTT (site CCTAAGTCTTG) | 0.0154
GACTTAACTTGGGTTCTAACCTGTTGCTT (site GACTTAACTAA) | 0.48
GAGAATACTTGGGTTCTAACCTGTTGCGT (site AAGAATACTAG) | 0.0615
GAGAATACTTGGGTTCTAACCTGTTGCGT (site GAGAATACTAC) | 2.41
GAGAATCCTTGGGTTCTAACCTGTTGCGT (site GAGAATCCTAC) | 2.49
GAGAATCCTTGGGTTCTAACCTGTTGCGT (site GAGTACCCTAC) | 0.0692
GAGACAACTTGGGTTCTAACCTGTTGCCT (site GAGACAACTAG) | 0.173
GAGACAACTTGGGTTCTAACCTGTTGCCT (site GGGACAGCTAG) | 0.303
GAGACGACTTGGGTTCTAACCTGTTGCCG (site GAGACGACTCG) | 1.61
GAGACGACTTGGGTTCTAACCTGTTGCCG (site GAGATGACTCC) | 0.0966
GAGAGATCTTGGGTTCTAACCTGTTGCCT (site GAGAAATCTAG) | 0.749
